This note sets out measurements from US10167262B2, “Herbicidal substituted 3-arylpyrazoles” (FMC CORPORATION, priority 2014, dated 2019).

Test in all cases: Test A pre-/postemergence greenhouse herbicide test, visual injury rating 0-100
Common to all, as to assay type: in vivo

One test deals with corn (Zea mays). The source says: (§1) Seeds of plant species selected from barnyardgrass (Echinochloa crus-galli), large (Lg) crabgrass (Digitaria sanguinalis), giant foxtail (Setaria faberii), morningglory (Ipomoea spp.), pigweed (Amaranthus retroflexus), velvetleaf (Abutilon theophrasti), wheat (Triticum aestivum), and corn (Zea mays) were planted into a blend of loam soil and sand and treated preemergence with a directed soil spray using test chemicals formulated in a non-phytotoxic solvent mixture which included a surfactant. At the same time these species were also treated with postemergence applications of test chemicals formulated in the same manner. Plants ranged in height from 2 to 10 cm and were in the one- to two-leaf stage for the postemergence treatment. Treated plants and untreated controls were maintained in a greenhouse for approximately 10 days, after which time all treated plants were compared to untreated controls and visually evaluated for injury. Plant response ratings, summarized in Table A, are based on a 0 to 100 scale where 0 is no effect and 100 is complete control. A dash (-) response means no test result.

Test [1] has as its system morningglory (Ipomoea spp.).
Source text: as §1

The test system of test [2] is giant foxtail (Setaria faberii).
Source text: as §1

In test [3] the test system is wheat (Triticum aestivum).
Source text: as §1

Test [4] has as its system large (Lg) crabgrass (Digitaria sanguinalis).
Source text: as §1

Test [5] concerns pigweed (Amaranthus retroflexus).
Source text: as §1

For test [6], the system named is barnyardgrass (Echinochloa crus-galli).
Source text: as §1

Test [7] relates to velvetleaf (Abutilon theophrasti).
Source text: as §1

For `CON=C(c1cccs1)c1c[nH]nc1-c1cc(Cl)cc(Cl)c1` [Compound 32], the “Plant response rating (0 to 100 scale), Corn” value in the test on corn (Zea mays) (Postemergence, 125 g ai/ha) came out at 0; in the test with corn (Zea mays) (Postemergence, 500 g ai/ha), 0; in the test on corn (Zea mays) (Preemergence, 500 g ai/ha) it was 0. Moreover, the “Corn plant response rating (0 = no effect, 100 = complete control)” value with corn (Zea mays) (Preemergence, 125 g ai/ha) was 0. For the same compound, the “Plant response rating (0 to 100 scale), Morningglory” value in test [1] (Postemergence, 125 g ai/ha) was determined as 0; in test [1] (Postemergence, 500 g ai/ha), 0; in test [1] (Preemergence, 500 g ai/ha), 0. Moreover, the “Morningglory plant response rating (0 = no effect, 100 = complete control)” value in test [1] (Preemergence, 125 g ai/ha) is on record as 0. Besides, the “Plant response rating (0 to 100 scale), Foxtail, Giant” value in test [2] (Postemergence, 125 g ai/ha) is 0; in test [2] (Postemergence, 500 g ai/ha), 0; in test [2] (Preemergence, 500 g ai/ha), 0. Further, the “Foxtail, Giant plant response rating (0 = no effect, 100 = complete control)” value in test [2] (Preemergence, 125 g ai/ha) came out at 0. Also, the “Plant response rating (0 to 100 scale), Wheat” value in test [3] (Postemergence, 125 g ai/ha) amounted to 0; in test [3] (Postemergence, 500 g ai/ha) it was 0; in test [3] (Preemergence, 500 g ai/ha) it was 0. Besides, in test [3] (Preemergence, 125 g ai/ha), the “Wheat plant response rating (0 = no effect, 100 = complete control)” value is listed as 0. Moreover, the “Plant response rating (0 to 100 scale), Crabgrass, Large” value in test [4] (Postemergence, 125 g ai/ha) was found to be 0; in test [4] (Postemergence, 500 g ai/ha) it was 0; in test [4] (Preemergence, 500 g ai/ha), 0. Moreover, the “Crabgrass, Large plant response rating (0 = no effect, 100 = complete control)” value in test [4] (Preemergence, 125 g ai/ha) came to 0. Also, the “Plant response rating (0 to 100 scale), Pigweed” value in test [5] (Postemergence, 125 g ai/ha) is on record as 0; in test [5] (Postemergence, 500 g ai/ha) it was 60. In addition, in test [5] (Preemergence, 125 g ai/ha), the “Pigweed plant response rating (0 = no effect, 100 = complete control)” value is 0. Besides, the “Plant response rating (0 to 100 scale), Barnyardgrass” value in test [6] (Postemergence, 125 g ai/ha) came out at 0; in test [6] (Postemergence, 500 g ai/ha), 0; in test [6] (Preemergence, 500 g ai/ha) it was 0. Also, the “Barnyardgrass plant response rating (0 = no effect, 100 = complete control)” value in test [6] (Preemergence, 125 g ai/ha) was determined as 0. The “Plant response rating (0 to 100 scale), Velvetleaf” value is given as 60 in test [7] (Postemergence, 125 g ai/ha); 70 in test [7] (Postemergence, 500 g ai/ha); 0 in test [7] (Preemergence, 500 g ai/ha). The “Velvetleaf plant response rating (0 = no effect, 100 = complete control)” value in test [7] (Preemergence, 125 g ai/ha) is listed as 0.
Turning to `Clc1cc(Cl)cc(-c2n[nH]cc2C(=NNc2ccccc2)c2ccccc2)c1` [Compound 33], the “Plant response rating (0 to 100 scale), Corn” value with corn (Zea mays) (Postemergence, 1000 g ai/ha) came out at 0; in the test on corn (Zea mays) (Preemergence, 1000 g ai/ha) it was 0. Further, the “Plant response rating (0 to 100 scale), Morningglory” value in test [1] (Postemergence, 1000 g ai/ha) was determined as 0; in test [1] (Preemergence, 1000 g ai/ha), 0. In addition, the “Plant response rating (0 to 100 scale), Foxtail, Giant” value in test [2] (Postemergence, 1000 g ai/ha) was 0; in test [2] (Preemergence, 1000 g ai/ha) it was 0. In addition, the “Plant response rating (0 to 100 scale), Wheat” value is on record as 0 in test [3] (Postemergence, 1000 g ai/ha) and 0 in test [3] (Preemergence, 1000 g ai/ha). Besides, the “Plant response rating (0 to 100 scale), Crabgrass, Large” value in test [4] (Postemergence, 1000 g ai/ha) is listed as 0; in test [4] (Preemergence, 1000 g ai/ha), 0. Besides, the “Plant response rating (0 to 100 scale), Pigweed” value in test [5] (Postemergence, 1000 g ai/ha) turned out to be 100; in test [5] (Preemergence, 1000 g ai/ha), 100. Besides, the “Plant response rating (0 to 100 scale), Barnyardgrass” value in test [6] (Postemergence, 1000 g ai/ha) came to 0; in test [6] (Preemergence, 1000 g ai/ha), 0. Besides, the “Plant response rating (0 to 100 scale), Velvetleaf” value in test [7] (Postemergence, 1000 g ai/ha) came to 100; in test [7] (Preemergence, 1000 g ai/ha), 80.
For `FC(F)(F)Cn1cc(C(=NNc2ccccc2)c2ccccc2)c(-c2cc(Cl)cc(Cl)c2)n1` [Compound 34], the “Plant response rating (0 to 100 scale), Corn” value with corn (Zea mays) (Postemergence, 125 g ai/ha) is listed as 0; in the test on corn (Zea mays) (Postemergence, 500 g ai/ha), 0; in the test on corn (Zea mays) (Preemergence, 500 g ai/ha), 0. Moreover, the “Corn plant response rating (0 = no effect, 100 = complete control)” value with corn (Zea mays) (Preemergence, 125 g ai/ha) turned out to be 0. The “Plant response rating (0 to 100 scale), Morningglory” value came out at 0 in test [1] (Postemergence, 125 g ai/ha); 0 in test [1] (Postemergence, 500 g ai/ha); 0 in test [1] (Preemergence, 500 g ai/ha). The “Morningglory plant response rating (0 = no effect, 100 = complete control)” value in test [1] (Preemergence, 125 g ai/ha) was found to be 0. The “Plant response rating (0 to 100 scale), Foxtail, Giant” value in test [2] (Postemergence, 125 g ai/ha) is recorded as 0; in test [2] (Postemergence, 500 g ai/ha), 0; in test [2] (Preemergence, 500 g ai/ha), 0. Further, the “Foxtail, Giant plant response rating (0 = no effect, 100 = complete control)” value in test [2] (Preemergence, 125 g ai/ha) is given as 0. Moreover, the “Plant response rating (0 to 100 scale), Wheat” value in test [3] (Postemergence, 125 g ai/ha) stood at 0; in test [3] (Postemergence, 500 g ai/ha), 0; in test [3] (Preemergence, 500 g ai/ha), 0. Besides, in test [3] (Preemergence, 125 g ai/ha), the “Wheat plant response rating (0 = no effect, 100 = complete control)” value turned out to be 0. Further, the “Plant response rating (0 to 100 scale), Crabgrass, Large” value in test [4] (Postemergence, 125 g ai/ha) was found to be 0; in test [4] (Postemergence, 500 g ai/ha), 0; in test [4] (Preemergence, 500 g ai/ha), 0. Moreover, the “Crabgrass, Large plant response rating (0 = no effect, 100 = complete control)” value in test [4] (Preemergence, 125 g ai/ha) turned out to be 0. For the same compound, the “Plant response rating (0 to 100 scale), Pigweed” value in test [5] (Postemergence, 125 g ai/ha) is 0; in test [5] (Postemergence, 500 g ai/ha), 20; in test [5] (Preemergence, 500 g ai/ha), 0. Moreover, the “Pigweed plant response rating (0 = no effect, 100 = complete control)” value in test [5] (Preemergence, 125 g ai/ha) came out at 0. Also, the “Plant response rating (0 to 100 scale), Barnyardgrass” value was 0 in test [6] (Postemergence, 125 g ai/ha); 0 in test [6] (Postemergence, 500 g ai/ha); 0 in test [6] (Preemergence, 500 g ai/ha). Moreover, the “Barnyardgrass plant response rating (0 = no effect, 100 = complete control)” value in test [6] (Preemergence, 125 g ai/ha) was found to be 0. In addition, the “Plant response rating (0 to 100 scale), Velvetleaf” value in test [7] (Postemergence, 125 g ai/ha) is on record as 10; in test [7] (Postemergence, 500 g ai/ha), 30; in test [7] (Preemergence, 500 g ai/ha), 0. For the same compound, the “Velvetleaf plant response rating (0 = no effect, 100 = complete control)” value in test [7] (Preemergence, 125 g ai/ha) stood at 0.
For the compound `Brc1cc(Br)cc(-c2n[nH]cc2C2(c3ccccc3)SCCS2)c1` [Compound 62], the “Plant response rating (0 to 100 scale), Corn” value with corn (Zea mays) (Postemergence, 1000 g ai/ha) came to 0; in the test on corn (Zea mays) (Preemergence, 1000 g ai/ha) it was 0. The “Plant response rating (0 to 100 scale), Foxtail, Giant” value in test [2] (Postemergence, 1000 g ai/ha) stood at 0; in test [2] (Preemergence, 1000 g ai/ha), 0. In addition, the “Plant response rating (0 to 100 scale), Wheat” value is 0 in test [3] (Postemergence, 1000 g ai/ha) and 0 in test [3] (Preemergence, 1000 g ai/ha). Further, the “Plant response rating (0 to 100 scale), Crabgrass, Large” value in test [4] (Postemergence, 1000 g ai/ha) was found to be 0; in test [4] (Preemergence, 1000 g ai/ha) it was 0. Further, the “Plant response rating (0 to 100 scale), Pigweed” value in test [5] (Postemergence, 1000 g ai/ha) is given as 100; in test [5] (Preemergence, 1000 g ai/ha), 80. Moreover, the “Plant response rating (0 to 100 scale), Barnyardgrass” value in test [6] (Postemergence, 1000 g ai/ha) came to 0; in test [6] (Preemergence, 1000 g ai/ha) it was 0. The “Plant response rating (0 to 100 scale), Velvetleaf” value in test [7] (Postemergence, 1000 g ai/ha) came to 90; in test [7] (Preemergence, 1000 g ai/ha) it was 60.
